Experimental data published in patent US5140044A, “UCN-1028D derivatives” (Kyowa Hakko Kogyo Co., Ltd., priority 1989, dated 1992).
Values after ≈ are worked out from the molar mass of the structure shown. Like-named read-outs stand apart in the source and are kept apart here.

Experiments:
BALB 3T3/H-ras = experiment: Anti-tumor activity: growth inhibition of BALB 3T3 cells transformed with H-ras (Giemsa staining); format: cell-based; conditions: for IC50: Mus musculus, BALB/3T3, 72 h, read-out: IC50 BALB 3T3/H-ras Inhibitory Activity
Method: The anti-tumor activity was determined using BALB 3T3 cells transformed with the carcinogenic gene H-ras (hereafter referred to as BALB 3T3/H-ras).
BALB 3T3/H-ras cells were suspended in a medium comprising DME medium (manufactured by Nissui Pharmaceutical Co., Ltd.) and 10% fetal calf serum (hereafter referred to as medium A) to a concentration of 3.0×10^4 /cells ml. The cell suspension thus prepared was put into wells of a 96-well microtiter plate in an amount of 0.1 ml per well. After culturing at 37° C. for 20 hours in a CO2 -incubator, 0.1 ml each of a test solution appropriately diluted with medium A was added to each well. The cells were further cultured at 37° C. for 72 hours in the CO2 -incubator and the culture supernatant was removed. After being washed once with physiological saline, the residue was treated with 0.1 ml of methanol for 10 minutes to fix the cells. Thereafter, the cells were stained with 0.1 ml of Giemsa staining solution [Giemsa staining stock solution (Merck Art 9204; manufactured by Merck Inc.) : physiological saline=1 : 10] for 5 minutes. After the staining solution was removed, the residue was washed once with 0.2 ml of water. The pigment was extracted with 0.2 ml of 0.1 N hydrochloric acid and the absorbance at 620 nm was measured with a microplate reader. By comparing the absorbance of untreated cells with those of the cells treated with the test compound at known concentrations, the concentration of the test compound at which the growth of the cells is inhibited by 50% (IC50) was calculated.

Protein Kinase C = experiment: Protein kinase C inhibitory activity (method of Kikkawa et al.; crude enzyme from rat brain, Histone Type II S phosphorylation); format: biochemical; conditions: crude enzyme partially purified from rat brain; [γ-32P]ATP, 30° C., 3 minutes, pH 7.5
Method: Protein kinase C inhibitory activity
The protein kinase C inhibitory activity was measured by the method of Kikkawa, et al. [Journal of Biological Chemistry, 257, 13341 (1982)].
That is, 10 μl of a test solution containing a UCN-1028D derivative was added to 250 μl of a solution containing 2.5 μmoles of magnesium acetate, 50 μg of Histone Type II S (manufactured by Sigma Co., Ltd.), 20 μg of phosphatidyl serine, 0.8 μg of diolein, 25 nmoles of CaCl2, 5 μg of crude enzyme (partially purified from rat brain according to the method of Kikkawa, et al.) and 5 μmoles of Tris-hydrochloride buffer (pH 7.5), followed by incubation at 30° C. for 3 minutes. Then, phosphorylation was initiated by addition of 1.25 nmoles of [γ-^32 P]ATP (5 to 10×10^3 cpm/nmole), followed by incubation at 30° C. for 3 minutes The reaction was stopped by adding 25% trichloroacetic acid (TCA), and the reaction solution was filtered through a cellulose acetate membrane (pore size: 0.45 μm) (manufactured by Toyo Filter Paper Co., Ltd.). After the membrane was washed four times with 5% TCA, radioactivity remaining on the membrane was measured. As a control, the same procedure as above was repeated without addition of the test solution and radioactivity was likewise measured. The concentration of the test solution showing 50% inhibition as compared with the control was expressed as IC50.

[1] = growth inhibition, 72 hours, 37° C., Giemsa staining, absorbance at 620 nm

Row | SMILES | IC50 (BALB 3T3/H-ras) [µg/mL] | IC50 Protein Kinase C Inhibitory Activity (Protein Kinase C) [µg/mL] | IC50 BALB 3T3/H-ras Inhibitory Activity (BALB 3T3/H-ras; [1]) [µg/mL] | IC50 (BALB 3T3/H-ras; [1]) [µg/mL]
1 | COc1ccc(C(=O)O[C@H](C)Cc2c(OC)c(=O)c3c(O)cc(OC)c4c5c(OC)cc(O)c6c(=O)c(OC)c(C[C@@H](C)OC(=O)c7ccc(OC)cc7)c(c2c34)c65)cc1 [Compound 27, 14,17-bis-O-p-methoxybenzoyl UCN-1028D] | 0.026 (≈ 0.0318 µM) | 0.05 (≈ 0.0611 µM) | – | –
2 | COC(=O)c1ccc(C(=O)O[C@H](C)Cc2c(OC)c(=O)c3c(O)cc(OC)c4c5c(OC)cc(O)c6c(=O)c(OC)c(C[C@@H](C)OC(=O)c7ccc(C(=O)OC)cc7)c(c2c34)c65)cc1 [Compound 28, 14,17-bis-O-p-methoxycarbonylbenzoyl UCN-1028D] | 0.068 (≈ 0.0777 µM) | 0.084 (≈ 0.096 µM) | – | –
3 | COc1c(C[C@@H](C)OC(=O)c2ccc(C)cc2)c2c3c(C[C@@H](C)OC(=O)c4ccc(C)cc4)c(OC)c(=O)c4c(O)cc(OC)c(c5c(OC)cc(O)c(c1=O)c52)c43 [Compound 29, 14,17-bis-O-p-methylbenzoyl UCN-1028D] | 0.022 (≈ 0.028 µM) | 0.06 (≈ 0.0763 µM) | – | –
4 | COc1c(C[C@@H](C)OC(=O)c2ccc([N+](=O)[O-])cc2)c2c3c(C[C@@H](C)OC(=O)c4ccc([N+](=O)[O-])cc4)c(OC)c(=O)c4c(O)cc(OC)c(c5c(OC)cc(O)c(c1=O)c52)c43 [Compound 30, 14,17-bis-O-p-nitrobenzoyl UCN-1028D] | 0.07 (≈ 0.0825 µM) | 0.11 (≈ 0.13 µM) | – | –
5 | COc1c(C[C@@H](C)OC(=O)c2cccc3ccccc23)c2c3c(C[C@@H](C)OC(=O)c4cccc5ccccc45)c(OC)c(=O)c4c(O)cc(OC)c(c5c(OC)cc(O)c(c1=O)c52)c43 [Compound 31, 14,17-di-O-1-naphthoyl UCN-1028D] | 1.5 (≈ 1.75 µM) | 0.19 (≈ 0.221 µM) | – | –
6 | COc1c(C[C@@H](C)OC(=O)c2ccc3ccccc3c2)c2c3c(C[C@@H](C)OC(=O)c4ccc5ccccc5c4)c(OC)c(=O)c4c(O)cc(OC)c(c5c(OC)cc(O)c(c1=O)c52)c43 [Compound 32, 14,17-di-O-2-naphthoyl UCN-1028D] | 1.2 (≈ 1.4 µM) | 0.1 (≈ 0.116 µM) | – | –
7 | COc1c(C[C@@H](C)OC(=O)c2ccncc2)c2c3c(C[C@@H](C)OC(=O)c4ccncc4)c(OC)c(=O)c4c(O)cc(OC)c(c5c(OC)cc(O)c(c1=O)c52)c43 [Compound 33, 14,17-di-O-isonicotinyl UCN-1028D] | 0.038 (≈ 0.05 µM) | 0.15 (≈ 0.197 µM) | – | –
8 | COc1c(C[C@@H](C)OC(=O)c2ccco2)c2c3c(C[C@@H](C)OC(=O)c4ccco4)c(OC)c(=O)c4c(O)cc(OC)c(c5c(OC)cc(O)c(c1=O)c52)c43 [Compound 35, 14,17-di-O-2-furoyl UCN-1028D] | 0.12 (≈ 0.162 µM) | 0.11 (≈ 0.149 µM) | – | –
9 | COC(=O)O[C@H](C)Cc1c(OC)c(=O)c2c(O)cc(OC)c3c4c(OC)cc(O)c5c(=O)c(OC)c(C[C@@H](C)OC(=O)OC)c(c1c23)c54 [Compound 36, 14,17-bis-O-methoxycarbonyl UCN-1028D] | 0.13 (≈ 0.195 µM) | 0.29 (≈ 0.435 µM) | – | –
10 | COc1c(C[C@@H](C)OC(=O)OCc2ccccc2)c2c3c(C[C@@H](C)OC(=O)OCc4ccccc4)c(OC)c(=O)c4c(O)cc(OC)c(c5c(OC)cc(O)c(c1=O)c52)c43 [Compound 37, 14,17-bis-O-benzyloxycarbonyl UCN-1028D] | 0.04 (≈ 0.0489 µM) | 0.052 (≈ 0.0635 µM) | – | –
11 | COc1c(C[C@@H](C)OC(=O)Oc2ccccc2)c2c3c(C[C@@H](C)OC(=O)Oc4ccccc4)c(OC)c(=O)c4c(O)cc(OC)c(c5c(OC)cc(O)c(c1=O)c52)c43 [Compound 38, 14,17-bis-O-phenyloxycarbonyl UCN-1028D] | 0.015 (≈ 0.019 µM) | 0.058 (≈ 0.0733 µM) | – | –
12 | COc1c(C[C@@H](C)OS(C)(=O)=O)c2c3c(C[C@@H](C)OS(C)(=O)=O)c(OC)c(=O)c4c(O)cc(OC)c(c5c(OC)cc(O)c(c1=O)c52)c43 [Compound 39, 14,17-bis-O-methanesulfonyl UCN-1028D] | 0.35 (≈ 0.495 µM) | 0.5 (≈ 0.707 µM) | – | –
13 | COc1c(C[C@@H](C)OS(=O)(=O)c2ccc(C)cc2)c2c3c(C[C@@H](C)OS(=O)(=O)c4ccc(C)cc4)c(OC)c(=O)c4c(O)cc(OC)c(c5c(OC)cc(O)c(c1=O)c52)c43 [Compound 40, 14,17-bis-O-p-toluenesulfonyl UCN-1028D] | 0.04 (≈ 0.0466 µM) | 0.066 (≈ 0.0768 µM) | – | –
14 | CCCNC(=O)O[C@H](C)Cc1c(OC)c(=O)c2c(O)cc(OC)c3c4c(OC)cc(O)c5c(=O)c(OC)c(C[C@@H](C)OC(=O)NCCC)c(c1c23)c54 [Compound 41, 14,17-bis-O-propylaminocarbonyl UCN-1028D] | 0.68 (≈ 0.943 µM) | 0.94 (≈ 1.3 µM) | – | –
15 | COc1c(C[C@@H](C)OC(=O)Nc2ccccc2)c2c3c(C[C@@H](C)OC(=O)Nc4ccccc4)c(OC)c(=O)c4c(O)cc(OC)c(c5c(OC)cc(O)c(c1=O)c52)c43 [Compound 42, 14,17-bis-O-phenylaminocarbonyl UCN-1028D] | 0.075 (≈ 0.0951 µM) | 0.021 (≈ 0.0266 µM) | – | –
16 | COc1c(C[C@@H](C)O)c2c3c(C[C@@H](C)O)c(OC)c(=O)c4c(O)cc(OC)c(c5c(OC)cc(O)c(c1=O)c52)c43 [Compound 43, UCN-1028 iso-D] | – | 0.74 (≈ 1.34 µM) | 1.0 (≈ 1.82 µM) | –
17 | COc1c(C[C@@H](C)OC(=O)c2ccccc2)c2c3c(C[C@@H](C)OC(=O)c4ccccc4)c(OC)c(=O)c4c(O)cc(OC)c(c5c(OC)cc(O)c(c1=O)c52)c43 [Compound 44, 14,17-di-O-benzoyl UCN-1028 iso-D] | – | 0.025 (≈ 0.0329 µM) | – | 0.52 (≈ 0.685 µM)
18 | COc1c(C[C@@H](C)O)c2c3c(C[C@@H](C)O)c(OC)c(=O)c4c(O)cc(OC)c(c5c(OC)cc(O)c(c1=O)c52)c43 [Compound 45, UCN-1028D] | – | 3.5 (≈ 6.36 µM) | 2.2 (≈ 4 µM) | –
